Test results: patent publication US6433150B1, “Anthracycline analogues bearing latent alkylating substituents” (Board of Regents, The University of Texas System, priority 1990, dated 2002)
pIC50: −log10 of the molar value. Where two headings read alike, the source gives them in different places.

Columns and labels:
P388 = details: cited from earlier work
[1] = test system: 8226R40 human myeloma cells; assay: Potency to 8226R40 human myeloma cells; type: cell-based
Stability at neutral pH = type: physicochemical
Text: (§1) To the best of applicants' knowledge, dialdehyde monoacetals such as 10 have not been reported previously. [These should be versatile synthetons in organic synthesis since the acetal ester groups can be cleaved under extremely mild conditions (weak base or esterase activity)]. Condensation of 10 with doxorubicin, 11, in the presence of NaCNBH3 generated 2a directly in >50% yield. Evidence for the structure of 2a was obtained by ^1H and COSY NMR, and by mass spectrometry.

[2] = Solubility in aqueous media; type: physicochemical
Text: as §1

[3] = test system: CEM cells (human T-lymphoblastic cell line); assay: Cytotoxicity studies, CEM cells; type: cell-based; details: for pIC50: six days incubation with drug at 37° C.
[4] = test system: CEM (VLB) cells (human T-lymphoblastic cell line resistant to Velban (vinblastine)); assay: Cytotoxicity studies, CEM (VLB) cells; type: cell-based; details: for Resistance index ([CEM(VLB)]/[CEM]): ratio of IC50 values; for pIC50: six days incubation with drug at 37° C., Velban (vinblastine) resistant line

In the case of `COc1cccc2c1C(=O)c1c(O)c3c(c(O)c1C2=O)C[C@@](O)(C(C)=O)C[C@@H]3O[C@H]1C[C@H](N2CCOCC2)[C@H](O)[C@H](C)O1` [3′-Deamino-3-(4-morpholinyl)daunorubicin], the “T/C value against P388” value (P388) is listed as 166% and the “active dose relative to the dose of doxorubicin” value (P388) is listed as “one-fortieth”.
For `COc1cccc2c1C(=O)c1c(O)c3c(c(O)c1C2=O)C[C@@](O)(C(=O)CO)C[C@@H]3O[C@H]1C[C@H](NCCCCC(OC(C)=O)OC(C)=O)[C@H](O)[C@H](C)O1.Cl` [Compound 2a, N-(5,5-Diacetoxypentyl) doxorubicin hydrochloride], the pIC50 [1] was 8.82, the “times more potent to 8226R40 human myeloma cells than doxorubicin” value ([1]; relative to doxorubicin) was 400 times and the “stability at neutral pH” value (Stability at neutral pH) was “stable”. For the same compound, the “solubility in aqueous media” value [2] was “freely soluble”, the “times more toxic to the parent CEM cells than doxorubicin” value ([3]; relative to doxorubicin) was 60 times and the pIC50 [3] was 9.82. The “cross resistance against the velban resistant mutant” value ([4]; compared with doxorubicin) was “markedly reduced cross resistance”, the “Resistance index ([CEM(VLB)]/[CEM])” value [4] was 6 and the pIC50 [4] was 9.00.
In the case of `COc1cccc2c1C(=O)c1c(O)c3c(c(O)c1C2=O)C[C@@](O)(C(=O)CO)C[C@@H]3O[C@H]1C[C@H](N)[C@H](O)[C@H](C)O1` [Doxorubicin, reference compound], the pIC50 ([1]; Homo sapiens) is given as 6.22, the “T/C value against P388” value (P388) is given as 160% and the pIC50 ([3]; Homo sapiens, CCRF-CEM, 144 h) is given as 8.00. For the same compound, the pIC50 ([4]; Homo sapiens, CEM-VLB, 144 h) was 5.87 and the “Resistance index ([CEM(VLB)]/[CEM])” value [4] was 134.
With “N-(2,2-Diacetoxyethyloxyethyl) doxorubicin HCl [Compound 2b]” the pIC50 [3] was 8.52, the “Resistance index ([CEM(VLB)]/[CEM])” value [4] was 5 and the pIC50 [4] was 7.82.
